Experimental data from patent US5574008A, “Biologically active fragments of glucagon-like insulinotropic peptide” (Eli Lilly and Company, priority 1994, dated 1996).

Tested on: fasted normal Sprague-Dawley rats
Experiment: In vivo hyperglycemic clamp assay (glucose up-take assay)
Set-up: species or system rat
Conditions: 0.3 nmol/kg iv bolus at 60 min
From the text: In vivo Hyperglycemic Clamp Assay (Glucose Up-take Assay) Male Sprague-Dawley rats (Charles Rivers) weighing about 350 grams were allowed to acclimate to their surroundings for a week after which they were cannulated under isoflurane inhalation anesthetic. Two catheters were implanted into the jugular vein for infusions of glucose and GLP-1 fragment. Another catheter was implanted into the carotid artery for sampling blood. The catheters were exteriorized through the skin at the vertex of the head, filled with a glycerol/heparin solution (30 ml glycerol/10 ml heparin from a 1000 u/ml stock solution), and closed off with a one centimeter stainless steel plug. The rats were housed individually in wire mesh cages and were fed ad libitum on a standard rat chow diet. Each animal was given at least one week to recover from surgery before testing any GLP-1 fragments for biological activity. The rats were fasted overnight; on the morning of the experiment, sampling tubes were connected to the indwelling catheters, and the tubes were enclosed in a light weight stainless steel spring for protection. The rats were acclimated to their cages for 15 minutes. All experiments were carried out in conscious, free moving rats. A basal blood sample was taken for measurement of insulin and glucose levels at time zero on the timer. The rats were then given a bolus of 20% dextrose to raise plasma glucose to either 150 mg/dl (8.3 mM) or 200 mg/dl (11.2 mM). Plasma glucose levels were maintained at the chosen level by measuring plasma glucose levels approximately every 5 minutes and adjusting the calibrated variable infusion pump as needed to maintain the established blood glucose levels. Blood samples were collected at 45 and 60 minutes for the control period measurements. At 60 minutes into the clamp, 0.3 nmol/kg of the experimental GLP-1 fragment was injected via the jugular vein catheter and flushed with saline. […] The blood samples were centrifuged in a micro centrifuge to separate the plasma component. Plasma glucose was measured on a Beckman Glucose analyzer II using the glucose oxidase method. Plasma insulin was determined by standard radio immunoassay as per the manufacturer's directions (Diagnostic Products Corp.). The activity of the GLP-1 fragment was determined by the percentage change in glucose infusion rate and change in insulin secreted. These two parameters were compared to control rats that received only diluent. Note: This assay is based on reports that GLP-1 insulinotropic action is glucose dependent. The assay protocol eliminates variability due to falling glucose levels in other protocols using the "bolus" method. The hyperglycemic clamp involved administration of variable amounts of glucose (20% dextrose) to maintain glucose at a constant level of 8.3 or 11.2 mM in fasted normal Sprague-Dawley rats. The hyperglycemic clamp is maintained for 1 hour after which the GLP-1 fragment is injected as a bolus through the jugular vein. […] The glucose infusion rate (GIR) in the last 15 minutes of the control period and after the injection of the peptide is calculated. The activity of the peptide is determined by the increase in glucose infusion rate and change in insulin secreted after the injection of the peptide.

[1] = 150 mg/dl plasma glucose clamp, time 60 min
[2] = 150 mg/dl plasma glucose clamp, time 62 min
[3] = 150 mg/dl plasma glucose clamp, time 64 min
[4] = 150 mg/dl plasma glucose clamp, time 66 min
[5] = 150 mg/dl plasma glucose clamp, time 68 min
[6] = 150 mg/dl plasma glucose clamp, time 70 min
[7] = 150 mg/dl plasma glucose clamp, time 75 min
[8] = 150 mg/dl plasma glucose clamp, time 80 min
[9] = 150 mg/dl plasma glucose clamp, time 85 min
[10] = 150 mg/dl plasma glucose clamp, time 90 min
[11] = 150 mg/dl plasma glucose clamp, time 100 min
[12] = 150 mg/dl plasma glucose clamp, time 110 min
[13] = 150 mg/dl plasma glucose clamp, time 120 min
[14] = 150 mg/dl plasma glucose clamp, time 130 min
[15] = 150 mg/dl plasma glucose clamp, time 140 min
[16] = 150 mg/dl plasma glucose clamp, time 150 min
[17] = 200 mg/dl plasma glucose clamp, time 60 min
[18] = 200 mg/dl plasma glucose clamp, time 62 min
[19] = 200 mg/dl plasma glucose clamp, time 64 min
[20] = 200 mg/dl plasma glucose clamp, time 66 min
[21] = 200 mg/dl plasma glucose clamp, time 68 min
[22] = 200 mg/dl plasma glucose clamp, time 70 min
[23] = 200 mg/dl plasma glucose clamp, time 75 min
[24] = 200 mg/dl plasma glucose clamp, time 80 min
[25] = 200 mg/dl plasma glucose clamp, time 85 min
[26] = 200 mg/dl plasma glucose clamp, time 90 min
[27] = 200 mg/dl plasma glucose clamp, time 100 min
[28] = 200 mg/dl plasma glucose clamp, time 110 min
[29] = 200 mg/dl plasma glucose clamp, time 120 min
[30] = 200 mg/dl plasma glucose clamp, time 130 min
[31] = 200 mg/dl plasma glucose clamp, time 140 min
[32] = 200 mg/dl plasma glucose clamp, time 150 min

GLP-1(7-37)OH was tested, and the “% Change in GIR” value [1] was 11.15%, the “Plasma Insulin Change” value [1] was 1.140 ng/mL and the “% Change in GIR” value [2] was -0.20%. The “Plasma Insulin Change” value [2] was 7.233 ng/mL, the “% Change in GIR” value [3] was 11.15% and the “Plasma Insulin Change” value [3] was 1.464 ng/mL. The “% Change in GIR” value [4] was 1.66%, the “Plasma Insulin Change” value [4] was 0.324 ng/mL and the “% Change in GIR” value [5] was 5.64%. The “Plasma Insulin Change” value [5] was -0.016 ng/mL, the “% Change in GIR” value [6] was 19.95% and the “Plasma Insulin Change” value [6] was -0.375 ng/mL. The “% Change in GIR” value [7] was 71.90%, the “Plasma Insulin Change” value [7] was -0.465 ng/mL and the “% Change in GIR” value [8] was 92.63%. The “Plasma Insulin Change” value [8] was -0.357 ng/mL, the “% Change in GIR” value [9] was 61.76% and the “Plasma Insulin Change” value [9] was -0.020 ng/mL. The “% Change in GIR” value [10] was 14.74%, the “Plasma Insulin Change” value [10] was -0.181 ng/mL and the “% Change in GIR” value [11] was -26.22%. The “Plasma Insulin Change” value [11] was -0.358 ng/mL, the “% Change in GIR” value [12] was -38.57% and the “Plasma Insulin Change” value [12] was -0.174 ng/mL. For the same substance, the “% Change in GIR” value [13] was -48.67%, the “Plasma Insulin Change” value [13] was -0.326 ng/mL and the “% Change in GIR” value [14] was -54.82%. The “Plasma Insulin Change” value [14] was -0.578 ng/mL, the “% Change in GIR” value [15] was -58.43% and the “Plasma Insulin Change” value [15] was -0.367 ng/mL. For the same substance, the “% Change in GIR” value [16] was -63.58%, the “Plasma Insulin Change” value [16] was -0.465 ng/mL and the “% Change in GIR” value [17] was 20.449%. For the same substance, the “Plasma Insulin Change” value [17] was 1.887 ng/mL, the “% Change in GIR” value [18] was 25.050% and the “Plasma Insulin Change” value [18] was 11.101 ng/mL. For the same substance, the “% Change in GIR” value [19] was 23.583%, the “Plasma Insulin Change” value [19] was 4.219 ng/mL and the “% Change in GIR” value [20] was 15.374%. For the same substance, the “Plasma Insulin Change” value [20] was 3.246 ng/mL, the “% Change in GIR” value [21] was 19.465% and the “Plasma Insulin Change” value [21] was 1.359 ng/mL. For the same substance, the “% Change in GIR” value [22] was 50.305%, the “Plasma Insulin Change” value [22] was -0.208 ng/mL and the “% Change in GIR” value [23] was 71.461%. For the same substance, the “Plasma Insulin Change” value [23] was -0.692 ng/mL, the “% Change in GIR” value [24] was 88.390% and the “Plasma Insulin Change” value [24] was -0.456 ng/mL. For the same substance, the “% Change in GIR” value [25] was 86.482%, the “Plasma Insulin Change” value [25] was -0.177 ng/mL and the “% Change in GIR” value [26] was 55.677%. For the same substance, the “Plasma Insulin Change” value [26] was -0.250 ng/mL, the “% Change in GIR” value [27] was 11.304% and the “Plasma Insulin Change” value [27] was -0.301 ng/mL. The “% Change in GIR” value [28] was -12.411%, the “Plasma Insulin Change” value [28] was -0.222 ng/mL and the “% Change in GIR” value [29] was -7.123%. The “Plasma Insulin Change” value [29] was -0.405 ng/mL, the “% Change in GIR” value [30] was -17.745% and the “Plasma Insulin Change” value [30] was -0.590 ng/mL. For the same substance, the “% Change in GIR” value [31] was -15.311%, the “Plasma Insulin Change” value [31] was -0.289 ng/mL and the “% Change in GIR” value [32] was -21.279%. For the same substance, the “Plasma Insulin Change” value [32] was -0.280 ng/mL.

In the case of “GLP-1(R26)(9-36)NH2 [GLP-1(R26) (9-36)NH2]”, the “% Change in GIR” value [17] is reported as 19.020%, the “Plasma Insulin Change” value [17] is reported as 1.692 ng/mL and the “% Change in GIR” value [18] is reported as 2.128%. For the same substance, the “Plasma Insulin Change” value [18] was 0.693 ng/mL, the “% Change in GIR” value [19] was 3.752% and the “Plasma Insulin Change” value [19] was 0.025 ng/mL. The “% Change in GIR” value [20] was 11.602%, the “Plasma Insulin Change” value [20] was 0.204 ng/mL and the “% Change in GIR” value [21] was 29.976%. The “Plasma Insulin Change” value [21] was 0.063 ng/mL, the “% Change in GIR” value [22] was 37.819% and the “Plasma Insulin Change” value [22] was 0.185 ng/mL. The “% Change in GIR” value [23] was 50.568%, the “Plasma Insulin Change” value [23] was -0.125 ng/mL and the “% Change in GIR” value [24] was 42.526%. For the same substance, the “Plasma Insulin Change” value [24] was 0.134 ng/mL, the “% Change in GIR” value [25] was 16.548% and the “Plasma Insulin Change” value [25] was -0.550 ng/mL. The “% Change in GIR” value [26] was -6.165%, the “Plasma Insulin Change” value [26] was -0.336 ng/mL and the “% Change in GIR” value [27] was -18.164%. The “Plasma Insulin Change” value [27] was 0.027 ng/mL, the “% Change in GIR” value [28] was -35.351% and the “Plasma Insulin Change” value [28] was -0.100 ng/mL. For the same substance, the “% Change in GIR” value [29] was -48.404% and the “Plasma Insulin Change” value [29] was 0.399 ng/mL.
